Reference: US12318364B2, “Isoflavonoid compositions and methods for the treatment of cancer” (Aardvark Therapeutics, Inc., priority 2010, dated 2025)
Converted amounts (≈) assume the structure as drawn.

Test: Solubility limit of compound d-4 in aqueous Captisol (SBE7-β-CD) solution
Format: physicochemical
Details: at 25° C., 20% Captisol® in water

SMILES: Oc1ccc([C@H]2c3ccc(O)cc3OC[C@H]2c2ccc(O)cc2)cc1 (relative stereo) [Compound d-4, d-cis-3-(4-hydroxyphenyl)-4-(4-hydroxyphenyl)chroman-7-ol]
- solubility limit: 27.9 mg/mL (≈ 83.4 mM)
